{"source": "the kinase profiling compilation of Christmann-Franck et al. (2016)", "experiment_in_all_cases": "KINOMEscan competition binding", "conditions_in_all_cases": "compound 0.5 µM", "key": {"SIK3 (human)": {"biological_target": "SIK3 (human) (UniProt Q9Y2K2)", "sequence (Q9Y2K2 whole entry, looked up)": "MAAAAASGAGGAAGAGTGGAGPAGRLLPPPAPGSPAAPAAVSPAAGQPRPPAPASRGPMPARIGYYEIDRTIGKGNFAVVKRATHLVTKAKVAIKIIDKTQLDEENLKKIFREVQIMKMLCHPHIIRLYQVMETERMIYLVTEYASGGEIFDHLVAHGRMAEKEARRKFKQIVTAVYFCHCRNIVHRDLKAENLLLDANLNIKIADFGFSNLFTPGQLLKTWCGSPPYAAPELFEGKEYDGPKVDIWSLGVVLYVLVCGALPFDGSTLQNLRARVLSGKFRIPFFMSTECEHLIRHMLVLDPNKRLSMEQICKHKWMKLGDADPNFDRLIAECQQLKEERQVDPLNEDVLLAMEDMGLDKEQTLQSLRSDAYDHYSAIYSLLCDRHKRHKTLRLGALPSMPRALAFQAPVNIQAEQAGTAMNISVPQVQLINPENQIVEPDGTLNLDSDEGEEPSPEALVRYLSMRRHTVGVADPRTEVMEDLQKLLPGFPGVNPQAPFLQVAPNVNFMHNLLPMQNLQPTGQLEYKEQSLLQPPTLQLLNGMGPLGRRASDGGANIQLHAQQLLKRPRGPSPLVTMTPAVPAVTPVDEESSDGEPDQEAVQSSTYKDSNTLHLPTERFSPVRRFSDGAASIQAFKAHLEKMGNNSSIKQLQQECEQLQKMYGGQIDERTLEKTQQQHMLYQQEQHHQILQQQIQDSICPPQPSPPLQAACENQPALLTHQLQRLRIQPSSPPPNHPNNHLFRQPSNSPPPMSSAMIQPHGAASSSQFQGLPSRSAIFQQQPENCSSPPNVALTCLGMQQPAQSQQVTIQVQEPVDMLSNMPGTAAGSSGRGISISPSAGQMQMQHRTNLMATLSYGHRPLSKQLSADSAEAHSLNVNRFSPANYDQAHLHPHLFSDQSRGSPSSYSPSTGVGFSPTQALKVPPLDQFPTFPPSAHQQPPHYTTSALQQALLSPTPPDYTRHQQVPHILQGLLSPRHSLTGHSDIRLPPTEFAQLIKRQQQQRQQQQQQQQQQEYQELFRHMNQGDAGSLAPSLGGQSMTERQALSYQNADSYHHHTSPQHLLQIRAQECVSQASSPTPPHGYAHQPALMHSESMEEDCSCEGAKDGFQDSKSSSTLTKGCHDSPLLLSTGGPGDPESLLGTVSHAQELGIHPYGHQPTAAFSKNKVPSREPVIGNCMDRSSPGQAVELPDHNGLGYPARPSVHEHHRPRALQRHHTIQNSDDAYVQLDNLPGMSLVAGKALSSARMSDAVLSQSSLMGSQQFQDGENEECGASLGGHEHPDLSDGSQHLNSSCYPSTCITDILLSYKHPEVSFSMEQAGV"}, "CDC42BPB (human)": {"biological_target": "CDC42BPB (human) (UniProt Q9Y5S2)"}, "TNK2 (human)": {"biological_target": "TNK2 (human) (UniProt Q07912)"}, "PIK3CD (human)": {"biological_target": "PIK3CD (human) (UniProt O00329)"}, "STK24 (human)": {"biological_target": "STK24 (human) (UniProt Q9Y6E0)"}, "AKT3 (human)": {"biological_target": "AKT3 (human) (UniProt Q9Y243)"}, "MAP4K2 (human)": {"biological_target": "MAP4K2 (human) (UniProt Q12851)"}, "[1]": {"test_system": "FLT3 (human), P36888 [D835Y]"}, "KDR (human)": {"biological_target": "KDR (human) (UniProt P35968)"}, "MAP3K4 (human)": {"biological_target": "MAP3K4 (human) (UniProt Q9Y6R4)"}, "ROS1 (human)": {"biological_target": "ROS1 (human) (UniProt P08922)"}, "MAP2K2 (human)": {"biological_target": "MAP2K2 (human) (UniProt P36507)"}, "RET (human)": {"biological_target": "RET (human) (UniProt P07949)"}, "ULK1 (human)": {"biological_target": "ULK1 (human) (UniProt O75385)", "sequence (O75385 whole entry, looked up)": "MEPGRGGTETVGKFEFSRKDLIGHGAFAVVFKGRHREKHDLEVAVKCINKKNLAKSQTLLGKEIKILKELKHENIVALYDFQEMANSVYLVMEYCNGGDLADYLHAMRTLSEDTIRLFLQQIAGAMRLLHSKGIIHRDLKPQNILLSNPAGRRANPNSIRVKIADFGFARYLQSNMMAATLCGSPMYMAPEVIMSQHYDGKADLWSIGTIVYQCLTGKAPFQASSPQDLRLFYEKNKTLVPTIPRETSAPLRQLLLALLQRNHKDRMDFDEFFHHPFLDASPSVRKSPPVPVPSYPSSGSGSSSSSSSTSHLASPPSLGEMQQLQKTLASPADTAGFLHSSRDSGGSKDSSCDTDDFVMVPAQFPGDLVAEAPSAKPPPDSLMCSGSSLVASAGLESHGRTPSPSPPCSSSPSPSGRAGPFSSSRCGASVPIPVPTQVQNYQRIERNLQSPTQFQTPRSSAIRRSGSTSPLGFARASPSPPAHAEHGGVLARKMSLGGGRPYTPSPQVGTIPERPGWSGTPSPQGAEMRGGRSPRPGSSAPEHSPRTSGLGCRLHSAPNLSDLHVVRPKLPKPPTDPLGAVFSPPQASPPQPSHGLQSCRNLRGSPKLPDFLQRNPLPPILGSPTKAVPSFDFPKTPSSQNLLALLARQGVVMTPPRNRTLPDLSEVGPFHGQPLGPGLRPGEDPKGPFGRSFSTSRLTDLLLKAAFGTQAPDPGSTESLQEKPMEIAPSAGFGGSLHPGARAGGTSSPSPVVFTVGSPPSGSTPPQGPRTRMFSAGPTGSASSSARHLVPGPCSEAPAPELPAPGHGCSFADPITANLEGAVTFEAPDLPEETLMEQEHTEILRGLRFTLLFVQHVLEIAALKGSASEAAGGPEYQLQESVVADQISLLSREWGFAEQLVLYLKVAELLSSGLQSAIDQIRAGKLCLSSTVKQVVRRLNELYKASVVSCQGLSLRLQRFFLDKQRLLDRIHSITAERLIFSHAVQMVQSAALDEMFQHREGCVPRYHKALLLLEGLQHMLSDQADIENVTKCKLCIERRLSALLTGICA"}, "MTOR (human)": {"biological_target": "MTOR (human) (UniProt P42345)"}, "MYLK3 (human)": {"biological_target": "MYLK3 (human) (UniProt Q32MK0)"}, "MAP3K10 (human)": {"biological_target": "MAP3K10 (human) (UniProt Q02779)"}, "RPS6KA1 KD2 (human)": {"biological_target": "RPS6KA1 KD2 (human) (UniProt Q15418)"}, "[2]": {"test_system": "PIK3CA (human), P42336 [I800L]"}, "RIOK1 (human)": {"biological_target": "RIOK1 (human) (UniProt Q9BRS2)"}, "FGFR3 (human)": {"biological_target": "FGFR3 (human) (UniProt P22607)"}, "RPS6KA6 KD1 (human)": {"biological_target": "RPS6KA6 KD1 (human) (UniProt Q9UK32)", "sequence (Q9UK32 whole entry, looked up)": "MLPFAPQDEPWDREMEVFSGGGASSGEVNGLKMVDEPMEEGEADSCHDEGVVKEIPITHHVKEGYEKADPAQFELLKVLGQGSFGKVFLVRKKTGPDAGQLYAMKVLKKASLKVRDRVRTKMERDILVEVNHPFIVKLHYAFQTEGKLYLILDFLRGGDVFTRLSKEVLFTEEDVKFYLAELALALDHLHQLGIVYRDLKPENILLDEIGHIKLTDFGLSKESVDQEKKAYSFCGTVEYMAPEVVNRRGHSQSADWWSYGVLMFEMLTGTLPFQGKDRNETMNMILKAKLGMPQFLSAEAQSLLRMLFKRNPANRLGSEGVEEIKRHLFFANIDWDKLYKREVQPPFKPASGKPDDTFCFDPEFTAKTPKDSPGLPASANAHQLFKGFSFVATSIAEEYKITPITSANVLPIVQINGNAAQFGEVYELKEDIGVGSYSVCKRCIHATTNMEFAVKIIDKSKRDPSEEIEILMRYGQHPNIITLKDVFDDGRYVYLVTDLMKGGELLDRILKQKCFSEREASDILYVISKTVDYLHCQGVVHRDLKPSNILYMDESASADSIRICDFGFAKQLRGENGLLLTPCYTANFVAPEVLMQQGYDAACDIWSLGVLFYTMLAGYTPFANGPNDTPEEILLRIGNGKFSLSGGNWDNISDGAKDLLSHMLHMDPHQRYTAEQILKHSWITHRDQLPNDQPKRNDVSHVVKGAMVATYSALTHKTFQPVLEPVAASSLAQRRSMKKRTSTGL"}, "BRAF (human)": {"biological_target": "BRAF (human) (UniProt P15056)"}, "YES1 (human)": {"biological_target": "YES1 (human) (UniProt P07947)"}, "MAP2K3 (human)": {"biological_target": "MAP2K3 (human) (UniProt P46734)"}, "CDK2 (human)": {"biological_target": "CDK2 (human) (UniProt P24941)"}, "DAPK1 (human)": {"biological_target": "DAPK1 (human) (UniProt P53355)"}, "CDK4 CCND3 (human)": {"biological_target": "CDK4 CCND3 (human) (UniProt P11802+P30281)", "sequence (P11802 whole entry, looked up)": "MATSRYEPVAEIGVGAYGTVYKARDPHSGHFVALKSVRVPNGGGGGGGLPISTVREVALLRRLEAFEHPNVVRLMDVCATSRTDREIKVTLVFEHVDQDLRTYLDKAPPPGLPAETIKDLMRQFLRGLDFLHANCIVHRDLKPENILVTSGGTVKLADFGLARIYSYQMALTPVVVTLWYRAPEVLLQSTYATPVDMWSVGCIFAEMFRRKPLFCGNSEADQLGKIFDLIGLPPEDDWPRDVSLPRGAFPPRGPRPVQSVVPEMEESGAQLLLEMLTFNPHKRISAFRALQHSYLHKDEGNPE", "sequence (P30281 whole entry, looked up)": "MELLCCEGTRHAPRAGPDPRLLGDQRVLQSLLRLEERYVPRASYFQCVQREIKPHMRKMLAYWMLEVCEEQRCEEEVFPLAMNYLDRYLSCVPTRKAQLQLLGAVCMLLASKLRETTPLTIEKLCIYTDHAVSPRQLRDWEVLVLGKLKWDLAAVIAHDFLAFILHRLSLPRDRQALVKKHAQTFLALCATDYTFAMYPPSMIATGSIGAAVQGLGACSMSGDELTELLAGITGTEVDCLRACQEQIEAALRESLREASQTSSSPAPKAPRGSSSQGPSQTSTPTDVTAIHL"}, "TYRO3 (human)": {"biological_target": "TYRO3 (human) (UniProt Q06418)"}, "MARK3 (human)": {"biological_target": "MARK3 (human) (UniProt P27448)"}, "[3]": {"test_system": "FGFR3 (human), P22607 [G697C]"}, "MAPK3 (human)": {"biological_target": "MAPK3 (human) (UniProt P27361)"}, "ACVRL1 (human)": {"biological_target": "ACVRL1 (human) (UniProt P37023)"}, "BMPR2 (human)": {"biological_target": "BMPR2 (human) (UniProt Q13873)"}, "FLT1 (human)": {"biological_target": "FLT1 (human) (UniProt P17948)"}, "EIF2AK2 (human)": {"biological_target": "EIF2AK2 (human) (UniProt P19525)", "sequence (P19525 whole entry, looked up)": "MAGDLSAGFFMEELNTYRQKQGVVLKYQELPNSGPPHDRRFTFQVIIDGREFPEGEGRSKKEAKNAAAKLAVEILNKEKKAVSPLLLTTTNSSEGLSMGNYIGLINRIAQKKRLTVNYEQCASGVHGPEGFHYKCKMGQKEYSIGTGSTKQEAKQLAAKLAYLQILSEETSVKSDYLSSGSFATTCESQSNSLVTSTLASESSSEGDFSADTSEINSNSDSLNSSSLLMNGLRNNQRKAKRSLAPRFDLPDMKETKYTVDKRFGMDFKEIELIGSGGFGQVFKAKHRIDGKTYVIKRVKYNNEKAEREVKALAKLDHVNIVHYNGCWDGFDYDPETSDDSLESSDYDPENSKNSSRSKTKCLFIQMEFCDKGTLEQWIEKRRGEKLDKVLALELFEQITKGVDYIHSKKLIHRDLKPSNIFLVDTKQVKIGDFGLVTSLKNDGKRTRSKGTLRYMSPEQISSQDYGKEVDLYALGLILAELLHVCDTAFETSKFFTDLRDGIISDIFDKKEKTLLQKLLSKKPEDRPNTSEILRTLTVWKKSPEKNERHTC"}, "MELK (human)": {"biological_target": "MELK (human) (UniProt Q14680)", "sequence (Q14680 whole entry, looked up)": "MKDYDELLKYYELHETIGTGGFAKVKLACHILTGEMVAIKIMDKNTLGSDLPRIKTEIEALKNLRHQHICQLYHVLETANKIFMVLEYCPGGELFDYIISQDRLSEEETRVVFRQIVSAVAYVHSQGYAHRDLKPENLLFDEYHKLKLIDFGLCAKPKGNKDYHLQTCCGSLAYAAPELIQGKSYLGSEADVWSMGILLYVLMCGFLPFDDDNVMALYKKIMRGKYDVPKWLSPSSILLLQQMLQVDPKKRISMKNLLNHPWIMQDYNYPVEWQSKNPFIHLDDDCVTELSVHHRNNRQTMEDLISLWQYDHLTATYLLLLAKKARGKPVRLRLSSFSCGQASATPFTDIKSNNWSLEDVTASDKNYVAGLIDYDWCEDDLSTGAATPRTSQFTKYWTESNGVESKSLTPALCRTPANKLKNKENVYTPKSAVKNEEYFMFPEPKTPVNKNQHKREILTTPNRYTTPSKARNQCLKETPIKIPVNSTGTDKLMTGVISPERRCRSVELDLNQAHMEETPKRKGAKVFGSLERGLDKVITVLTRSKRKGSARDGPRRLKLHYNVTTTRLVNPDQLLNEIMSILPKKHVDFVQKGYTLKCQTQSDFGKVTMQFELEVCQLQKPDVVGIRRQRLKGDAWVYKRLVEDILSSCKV"}, "NEK7 (human)": {"biological_target": "NEK7 (human) (UniProt Q8TDX7)"}, "MAP3K13 (human)": {"biological_target": "MAP3K13 (human) (UniProt O43283)"}, "SIK2 (human)": {"biological_target": "SIK2 (human) (UniProt Q9H0K1)"}, "[4]": {"test_system": "BRAF (human), P15056 [V600E]"}}}
{"smiles": "Cn1c2ccccc2c2c3c(c4c5ccccc5n(CCC#N)c4c21)CNC3=O", "values": [{"measurement": "kinase still bound, per cent of control", "setting": "SIK3 (human)", "value": 100, "unit": "%"}, {"measurement": "kinase still bound, per cent of control", "setting": "CDC42BPB (human)", "value": 100, "unit": "%"}, {"measurement": "kinase still bound, per cent of control", "setting": "TNK2 (human)", "value": 18, "unit": "%"}, {"measurement": "kinase still bound, per cent of control", "setting": "PIK3CD (human)", "value": 45, "unit": "%"}, {"measurement": "kinase still bound, per cent of control", "setting": "STK24 (human)", "value": 92, "unit": "%"}, {"measurement": "kinase still bound, per cent of control", "setting": "AKT3 (human)", "value": 100, "unit": "%"}, {"measurement": "kinase still bound, per cent of control", "setting": "MAP4K2 (human)", "value": 1.1, "unit": "%"}, {"measurement": "kinase still bound, per cent of control", "setting": "[1]", "value": 0, "unit": "%"}, {"measurement": "kinase still bound, per cent of control", "setting": "KDR (human)", "value": 82, "unit": "%"}, {"measurement": "kinase still bound, per cent of control", "setting": "MAP3K4 (human)", "value": 99, "unit": "%"}, {"measurement": "kinase still bound, per cent of control", "setting": "ROS1 (human)", "value": 1.8, "unit": "%"}, {"measurement": "kinase still bound, per cent of control", "setting": "MAP2K2 (human)", "value": 61, "unit": "%"}, {"measurement": "kinase still bound, per cent of control", "setting": "RET (human)", "value": 0.6, "unit": "%"}, {"measurement": "kinase still bound, per cent of control", "setting": "ULK1 (human)", "value": 92, "unit": "%"}, {"measurement": "kinase still bound, per cent of control", "setting": "MTOR (human)", "value": 52, "unit": "%"}, {"measurement": "kinase still bound, per cent of control", "setting": "MYLK3 (human)", "value": 100, "unit": "%"}, {"measurement": "kinase still bound, per cent of control", "setting": "MAP3K10 (human)", "value": 98, "unit": "%"}, {"measurement": "kinase still bound, per cent of control", "setting": "RPS6KA1 KD2 (human)", "value": 88, "unit": "%"}, {"measurement": "kinase still bound, per cent of control", "setting": "[2]", "value": 19, "unit": "%"}, {"measurement": "kinase still bound, per cent of control", "setting": "RIOK1 (human)", "value": 0.6, "unit": "%"}, {"measurement": "kinase still bound, per cent of control", "setting": "FGFR3 (human)", "value": 97, "unit": "%"}, {"measurement": "kinase still bound, per cent of control", "setting": "RPS6KA6 KD1 (human)", "value": 4.7, "unit": "%"}, {"measurement": "kinase still bound, per cent of control", "setting": "BRAF (human)", "value": 100, "unit": "%"}, {"measurement": "kinase still bound, per cent of control", "setting": "YES1 (human)", "value": 96, "unit": "%"}, {"measurement": "kinase still bound, per cent of control", "setting": "MAP2K3 (human)", "value": 5, "unit": "%"}, {"measurement": "kinase still bound, per cent of control", "setting": "CDK2 (human)", "value": 36, "unit": "%"}, {"measurement": "kinase still bound, per cent of control", "setting": "DAPK1 (human)", "value": 78, "unit": "%"}, {"measurement": "kinase still bound, per cent of control", "setting": "CDK4 CCND3 (human)", "value": 42, "unit": "%"}, {"measurement": "kinase still bound, per cent of control", "setting": "TYRO3 (human)", "value": 78, "unit": "%"}, {"measurement": "kinase still bound, per cent of control", "setting": "MARK3 (human)", "value": 16, "unit": "%"}, {"measurement": "kinase still bound, per cent of control", "setting": "[3]", "value": 100, "unit": "%"}, {"measurement": "kinase still bound, per cent of control", "setting": "MAPK3 (human)", "value": 96, "unit": "%"}, {"measurement": "kinase still bound, per cent of control", "setting": "ACVRL1 (human)", "value": 100, "unit": "%"}, {"measurement": "kinase still bound, per cent of control", "setting": "BMPR2 (human)", "value": 100, "unit": "%"}, {"measurement": "kinase still bound, per cent of control", "setting": "FLT1 (human)", "value": 95, "unit": "%"}, {"measurement": "kinase still bound, per cent of control", "setting": "EIF2AK2 (human)", "value": 89, "unit": "%"}, {"measurement": "kinase still bound, per cent of control", "setting": "MELK (human)", "value": 22, "unit": "%"}, {"measurement": "kinase still bound, per cent of control", "setting": "NEK7 (human)", "value": 100, "unit": "%"}, {"measurement": "kinase still bound, per cent of control", "setting": "MAP3K13 (human)", "value": 33, "unit": "%"}, {"measurement": "kinase still bound, per cent of control", "setting": "SIK2 (human)", "value": 36, "unit": "%"}, {"measurement": "kinase still bound, per cent of control", "setting": "[4]", "value": 92, "unit": "%"}]}
